Data as given in EPA's ToxRefDB 2.

Columns and labels:
mouse [1] = conditions: Carcinogenicity; b6c3f1; Oral; Feed; dose end: 104 week; group: systemic; systemic / in life observation / body weight / body weight
rat [2] = conditions: Carcinogenicity; fischer; Oral; Feed; dose end: 104 week; group: systemic; systemic / in life observation / body weight / body weight + systemic / pathology microscopic / kidney / cytomegaly + systemic / pathology …
rat [3] = conditions: Subchronic oral toxicity in rodents, fischer, Feed, dose end: 13 week, group: systemic
mouse [4] = conditions: Subchronic oral toxicity in rodents, b6c3f1, Feed, dose end: 13 week, group: systemic
rat [5] = conditions: Prenatal developmental toxicity study, sprague dawley, Oral, Gavage/Intubation, dose end: 15 GD
rat [6] = conditions: Combined chronic toxicity/carcinogenicity, sprague dawley, Oral, Feed, dose end: 24 month, group: systemic
mouse [7] = conditions: Carcinogenicity, cd1, Oral, Feed, dose end: 2 year, group: systemic
mouse [8] = conditions: Combined chronic toxicity/carcinogenicity, other, Oral, Feed, dose end: 80 week, group: systemic
rat [9] = conditions: Combined chronic toxicity/carcinogenicity; wistar; Oral; Feed; dose end: 2 year; group: systemic; systemic / in life observation / body weight / body weight gain + systemic / in life observation / food consumption / food consumption + …
dog = conditions: Chronic toxicity; beagle; Oral; Capsule; dose end: 52 week; group: systemic; systemic / clinical chemistry / alanine aminotransferase (alt/sgpt) / alanine aminotransferase (alt/sgpt) + systemic / in life observation…
rat [10] = conditions: Subchronic oral toxicity in rodents, fischer, Gavage/Intubation, dose end: 13 week, group: systemic, systemic / in life observation / body weight / body weight
mouse [11] = conditions: Carcinogenicity, b6c3f1, Oral, Gavage/Intubation, dose end: 2 year, group: systemic
mouse [12] = conditions: Subchronic oral toxicity in rodents, b6c3f1, Gavage/Intubation, dose end: 13 week, group: systemic
[13] = systemic / in life observation / body weight / body weight
[14] = systemic / in life observation / food consumption / food consumption
[15] = group: developmental, developmental / developmental malformation / bone / incomplete ossification + developmental / developmental malformation / interparietal / …
[16] = group: maternal, systemic / in life observation / body weight / body weight + systemic / in life observation / food consumption / food consumption
[17] = group: maternal, systemic / in life observation / body weight / body weight + systemic / in life observation / food consumption / food consumption + systemic…
[18] = systemic / pathology microscopic / mammary gland / adenocarcinoma
[19] = systemic / pathology microscopic / heart / degeneration
[20] = systemic / pathology microscopic / heart / degeneration + systemic / pathology microscopic / liver / hemosiderin laden macrophages
[21] = systemic / in life observation / body weight / body weight + systemic / organ weight / kidney / relative to body weight + systemic / organ …
[22] = systemic / organ weight / liver / relative to body weight
[23] = systemic / pathology microscopic / liver / vacuolization + systemic / pathology microscopic / thyroid gland / hyperplasia
[24] = systemic / pathology microscopic / liver / vacuolization + systemic / pathology microscopic / thyroid gland / hyperplasia + systemic / …
[25] = systemic / pathology microscopic / stomach / inflammation
[26] = systemic / pathology microscopic / stomach / inflammation + systemic / in life observation / body weight / body weight + systemic / …

## CN(C)C(=O)Nc1ccc(Cl)cc1 [Monuron]
Mouse [1]
  LEL: 750 mg/kg/day
  LOAEL: 750 mg/kg/day
  NEL: < 750 mg/kg/day
  NOAEL: < 750 mg/kg/day
Rat [2]
  LEL: 37.5 mg/kg/day
  LOAEL: 75 mg/kg/day
  NEL: < 37.5 mg/kg/day
  NOAEL: 37.5 mg/kg/day
Rat [3]; [13]
  LOAEL: 75 mg/kg/day
Rat [3]; systemic / in life observation / body weight / body weight + systemic / in life observation / food consumption / food consumption + systemic…
  NOAEL: 37.5 mg/kg/day
Rat [3]; [14]
  LEL: 37.5 mg/kg/day
  NEL: < 37.5 mg/kg/day
Mouse [4]; [13]
  LEL: 450 mg/kg/day
  LOAEL: 1800 mg/kg/day
  NEL: < 450 mg/kg/day
Mouse [4]; systemic / in life observation / body weight / body weight + systemic / in life observation / mortality / mortality + systemic / pathology …
  NOAEL: 900 mg/kg/day

## CC(C)Nc1nc(Cl)nc(NC(C)C)n1 [Propazine]
Rat [5]; [15]
  LOAEL: 100 mg/kg/day
  NEL: 10 mg/kg/day
  NOAEL: 10 mg/kg/day
Rat [5]; group: developmental, developmental / developmental malformation / interparietal / incomplete ossification
  LEL: 100 mg/kg/day
Rat [5]; [16]
  LEL: 100 mg/kg/day
  LOAEL: 100 mg/kg/day
Rat [5]; [17]
  NEL: 10 mg/kg/day
  NOAEL: 10 mg/kg/day
Rat [6]; [13]
  LOAEL: 51 mg/kg/day
Rat [6]; systemic / in life observation / body weight / body weight + systemic / in life observation / body weight / body weight gain
  NOAEL: 5.2 mg/kg/day
Rat [6]; [18]
  LEL: 0.2 mg/kg/day
  NEL: < 0.2 mg/kg/day
Mouse [7]; [19]
  NEL: 150 mg/kg/day
  NOAEL: 150 mg/kg/day
Mouse [7]; [20]
  LEL: 450 mg/kg/day
  LOAEL: 450 mg/kg/day

## C/C=C/C=C/C(=O)O [Sorbic acid]
Mouse [8]; [21]
  LOAEL: > 15000 mg/kg/day
  NOAEL: ≥ 15000 mg/kg/day
Mouse [8]; [22]
  LEL: 1500 mg/kg/day
  NEL: < 1500 mg/kg/day
Rat [9]
  LEL: 5000 mg/kg/day
  LOAEL: > 5000 mg/kg/day
  NEL: 750 mg/kg/day
  NOAEL: ≥ 5000 mg/kg/day

## CNC(=O)N(C)c1nnc(C(C)(C)C)s1 [Tebuthiuron]
dog
  LEL: 50 mg/kg/day
  LOAEL: 50 mg/kg/day
  NEL: 25 mg/kg/day
  NOAEL: 25 mg/kg/day

## CCCCC(CC)COP(=O)(OCC(CC)CCCC)OCC(CC)CCCC (stereo unspecified) [Tris(2-ethylhexyl) phosphate]
Rat [10]
  LEL: 2000 mg/kg/day
  LOAEL: 2000 mg/kg/day
  NEL: 1000 mg/kg/day
  NOAEL: 1000 mg/kg/day
Mouse [11]; [23]
  LEL: 500 mg/kg/day
  NEL: < 500 mg/kg/day
Mouse [11]; [24]
  LOAEL: > 1000 mg/kg/day
  NOAEL: ≥ 1000 mg/kg/day
Mouse [12]; [25]
  LEL: 500 mg/kg/day
  NEL: < 500 mg/kg/day
Mouse [12]; [26]
  LOAEL: 8000 mg/kg/day
  NOAEL: 4000 mg/kg/day
